Data: patent US20090069370A1, “AZACYCLYLISOQUINOLINONE AND ISOINDOLINONE DERIVATIVES AS HISTAMINE-3 ANTAGONISTS” (Wyeth, priority 2007, published 2009)
Structures can show the parent of a compound that is named as a salt.

Biological target: T1, Human Histamine H3 Receptor (Homo sapiens, UniProt Q9Y5N1)
T1 construct: expressed in transfected cells; host or cells: HEK293T cells, stably transfected; membrane preparation
Experiment: Methyl histamine binding in human histamine H3 receptor cell line
Details: membranes of stably transfected HEK293T cells; radioligand 1 nM; Ki from IC50 by Cheng-Prusoff
Experimental: Evaluation of Methyl Histamine Binding in Human Histamine H3 Receptor Cell Line
The affinity of test compounds for the histamine 3 (H3) receptor is evaluated in the following manner. Stably transfected HEK293T cells are grown in DMEM containing 10% heat inactivated FBS and G-418 (500 ug/ml). Cells are scraped from the plate, transferred to centrifuge tubes, washed one time in PBS by centrifugation in a Sorvall RT7 Plus centrifuge (2000 rpm 10 minutes, 4° C.). The resulting pellets are stored at −80° C. until ready for use. Cells are re-suspended in buffer (50 mM Tris pH=7.5) and placed in a Dounce homogenizer, douncing ten times to homogenize cells. The homogenate is spun down by centrifugation (Sorvall RT7 Plus, 1800 rpm 10 minutes, 4° C.). The supernatant is placed in a Corex tube and spun down by centrifugation (Sorvall RC 5c Plus, 17,000 rpm 20 minutes, 4° C.). The pellet is resuspended in buffer (50 mM Tris, pH 7.5). Protein concentration (ug/ul) is determined using the Micro-BCA Protein Determination. The binding assay is set up in a 96 well microtiter plate in a total volume of 250 uL. Non-specific binding is determined in the presence of 10 uM clobenpropit. The final radioligand concentration is 1 nM. The test compound is serially diluted using the Beckman Biomek2000 to a final approximate range of 100 uM to 100 pM. Membranes are suspended in buffer, homogenized in 2 bursts of ten seconds using a Vitris mechanical homogenizer set at power setting 5. Ten μg of membranes are added to each well. Following a one hour incubation at 30° C., the reaction is terminated by the addition of ice cold buffer and rapid filtration with a Packard Filtermate Harvester through a GF/B filter pre-soaked with 1% PEI for one hour. The plate is dried for one hour at 37° C. and 60 μL Microscint Scintillant is added to each well. The CPM per well is measured on a Packard Top Count NXT. Ki values are determined in nM. The Ki is calculated from the IC50 (i.e. the concentration of competing ligand which displaces 50% of the specific binding of the radioligand). CPM values are expressed as % specific binding and plotted vs compound concentration. A curve is fitted using a four-parameter logistic fit and the IC50 value is determined. The Ki is calculated from this using the Cheng-Prusoff equation: […]=IC50/1+(L/Kd) where L=concentration of free radioligand used in the assay, and Kd is the dissociation constant of the radioligand for the receptor. L is determined for each experiment by counting an aliquot of the diluted radioligand (corresponding to that added to each well) and the Kd has previously been determined under identical conditions for this cell line/radioligand.

T1 sequence (Q9Y5N1 whole entry): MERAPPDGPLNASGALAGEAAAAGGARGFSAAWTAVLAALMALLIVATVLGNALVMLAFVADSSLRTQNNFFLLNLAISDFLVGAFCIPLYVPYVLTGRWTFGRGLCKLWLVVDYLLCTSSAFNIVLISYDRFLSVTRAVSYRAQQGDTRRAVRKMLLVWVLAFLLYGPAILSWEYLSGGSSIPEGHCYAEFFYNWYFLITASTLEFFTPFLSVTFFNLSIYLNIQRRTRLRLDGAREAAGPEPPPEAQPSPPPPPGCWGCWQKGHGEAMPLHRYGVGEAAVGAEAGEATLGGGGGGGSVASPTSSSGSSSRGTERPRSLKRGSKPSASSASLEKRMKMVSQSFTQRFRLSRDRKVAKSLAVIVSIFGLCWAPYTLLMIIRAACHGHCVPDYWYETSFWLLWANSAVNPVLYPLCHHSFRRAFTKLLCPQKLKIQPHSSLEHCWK

| SMILES | Ki [nM] |
| --- | --- |
| CCN(CC)C(=O)c1ccc(Oc2ccc3c(c2)CCN(C2CCN(C4CCC4)CC2)C3=O)cc1 [Example 11, 4-{[2-(1-Cyclobutylpiperidin-4-yl)-1-oxo-1,2,3,4-tetrahydroisoquinolin-6-yl]oxy}-N,N-diethylbenzamide] | 25.1 to 50 |
| O=C(c1ccc(Oc2ccc3c(c2)CCN(C2CCN(C4CCC4)CC2)C3=O)cc1)N1CCCC1 [Example 12, 2-(1-Cyclobutylpiperidin-4-yl)-6-[4-(pyrrolidin-1-ylcarbonyl)phenoxy]-3,4-dihydroisoquinolin-1(2H)-one] | ≤ 10 |
| NC(=O)c1ccc(COc2ccc3c(c2)CCN(C2CCN(C4CCC4)CC2)C3=O)cc1 [Example 15, 4-({[2-(1-cyclobutylpiperidin-4-yl)-1-oxo-1,2,3,4-tetrahydroiso-quinolin-6-yl]oxy}methyl)benzamide acid hydrochloride] | ≤ 10 |
| CNC(=O)c1ccc(COc2ccc3c(c2)CCN(C2CCN(C4CCC4)CC2)C3=O)cc1 [Example 16, 4-({[2-(1-Cyclobutylpiperidin-4-yl)-1-oxo-1,2,3,4-tetrahydroisoquinolin-6-yl]oxy}methyl)-N-methylbenzamide] | ≤ 10 |
| CCNC(=O)c1ccc(COc2ccc3c(c2)CCN(C2CCN(C4CCC4)CC2)C3=O)cc1 [Example 17, 4-({[2-(1-Cyclobutylpiperidin-4-yl)-1-oxo-1,2,3,4-tetrahydroisoquinolin-6-yl]oxy}methyl)-N-ethylbenzamide] | ≤ 10 |
| CN(C)C(=O)c1ccc(COc2ccc3c(c2)CCN(C2CCN(C4CCC4)CC2)C3=O)cc1 [Example 18, 4-({[2-(1-Cyclobutylpiperidin-4-yl)-1-oxo-1,2,3,4-tetrahydroisoquinolin-6-yl]oxy}methyl)-N,N-dimethylbenzamide] | ≤ 10 |
| O=C(NC1CCC1)c1ccc(COc2ccc3c(c2)CCN(C2CCN(C4CCC4)CC2)C3=O)cc1 [Example 19, N-Cyclobutyl-4-({[2-(1-cyclobutylpiperidin-4-yl)-1-oxo-1,2,3,4-tetrahydroisoquinolin-6-yl]oxy}methyl)benzamide] | ≤ 10 |
| O=C(c1ccc(COc2ccc3c(c2)CCN(C2CCN(C4CCC4)CC2)C3=O)cc1)N1CCCC1 [Example 20, 2-(1-Cyclobutylpiperidin-4-yl)-6-{[4-(pyrrolidin-1-ylcarbonyl)benzyl]oxy}-3,4-dihydroisoquinolin-1(2H)-one] | ≤ 10 |
| O=C(NC1CCCC1)c1ccc(COc2ccc3c(c2)CCN(C2CCN(C4CCC4)CC2)C3=O)cc1 [Example 21, 4-({[2-(1-Cyclobutylpiperidin-4-yl)-1-oxo-1,2,3,4-tetrahydroisoquinolin-6-yl]oxy}methyl)-N-cyclopentylbenzamide] | ≤ 10 |
| N#Cc1ccc(-c2ccc3c(c2)CN(C2CCNCC2)C3=O)cc1 [Example 22, 4-(1-oxo-2-piperidin-4-yl-2,3-dihydro-1H-isoindol-5-yl)benzonitrile hydrochloride] | > 100 |
| CN1CCC(N2Cc3cc(-c4ccc(C#N)cc4)ccc3C2=O)CC1 [Example 23, hydrochloride] | > 100 |
| CCN1CCC(N2Cc3cc(-c4ccc(C#N)cc4)ccc3C2=O)CC1 [Example 24, 4-[2-(1-Ethylpiperidin-4-yl)-1-oxo-2,3-dihydro-1H-isoindol-5-yl]benzonitrile] | > 100 |
| CCCN1CCC(N2Cc3cc(-c4ccc(C#N)cc4)ccc3C2=O)CC1 [Example 25, 4-[1-Oxo-2-(1-propylpiperidin-4-yl)-2,3-dihydro-1H-isoindol-5-yl]benzonitrile] | > 100 |
| N#Cc1ccc(-c2ccc3c(c2)CN(C2CCN(CC4CC4)CC2)C3=O)cc1 [Example 26, 4-{2-[1-(Cyclopropylmethyl)piperidin-4-yl]-1-oxo-2,3-dihydro-1H-isoindol-5-yl}benzonitrile] | 50.1 to 100 |
| N#Cc1ccc(-c2ccc3c(c2)CN(C2CCN(CC4CCCC4)CC2)C3=O)cc1 [Example 27, 4-{2-[1-(Cyclopentylmethyl)piperidin-4-yl]-1-oxo-2,3-dihydro-1H-isoindol-5-yl}benzonitrile] | 25.1 to 50 |
| N#Cc1ccc(-c2ccc3c(c2)CN(C2CCN(C4CCC4)CC2)C3=O)cc1 [Example 28, 4-[2-(1-Cyclobutylpiperidin-4-yl)-1-oxo-2,3-dihydro-1H-isoindol-5-yl]benzonitrile] | 25.1 to 50 |
| N#Cc1ccc(-c2ccc3c(c2)CN(C2CCN(C4CCCC4)CC2)C3=O)cc1 [Example 29, 4-[2-(1-Cyclopentylpiperidin-4-yl)-1-oxo-2,3-dihydro-1H-isoindol-5-yl]benzonitrile] | 10.1 to 25 |
| N#Cc1ccc(-c2ccc3c(c2)CN(C2CCN(C4CCCCC4)CC2)C3=O)cc1 [Example 30, 4-[2-(1-Cyclohexylpiperidin-4-yl)-1-oxo-2,3-dihydro-1H-isoindol-5-yl]benzonitrile] | 25.1 to 50 |
| O=C(O)c1ccc(Oc2ccc3c(c2)CCN([C@@H]2CCN(C4CCC4)C2)C3=O)cc1 [Example 32, (R)-4-(2-(1-cyclobutylpyrrolidin-3-yl)-1-oxo-1,2,3,4-tetrahydroiso-quinolin-6-yloxy)benzoic acid] | > 100 |
| CNC(=O)c1ccc(Oc2ccc3c(c2)CCN([C@@H]2CCN(C4CCC4)C2)C3=O)cc1 [Example 33, 4-({2-[(3R)-1-cyclobutylpyrrolidin-3-yl]-1-oxo-1,2,3,4-tetrahydroisoquinolin-6-yl}oxy)-N-methylbenzamide] | ≤ 10 |
| CCNC(=O)c1ccc(Oc2ccc3c(c2)CCN([C@@H]2CCN(C4CCC4)C2)C3=O)cc1 [Example 34, 4-({2-[(3R)-1-cyclobutylpyrrolidin-3-yl]-1-oxo-1,2,3,4-tetrahydroisoquinolin-6-yl}oxy)-N-ethylbenzamide] | ≤ 10 |
| O=C(c1ccc(Oc2ccc3c(c2)CCN([C@@H]2CCN(C4CCC4)C2)C3=O)cc1)N1CCCC1 [Example 35, 2-[(3R)-1-cyclobutylpyrrolidin-3-yl]-6-[4-(pyrrolidin-1-ylcarbonyl)phenoxy]-3,4-dihydroisoquinolin-1(2H)-one] | 10.1 to 25 |
| CNC(=O)c1ccc(Oc2ccc3c(c2)CCN([C@@H]2CCN(C4CCCC4)C2)C3=O)cc1 [Example 37, 4-({2-[(3R)-1-cyclopentylpyrrolidin-3-yl]-1-oxo-1,2,3,4-tetrahydroisoquinolin-6-yl}oxy)-N-methylbenzamide] | ≤ 10 |
| CCNC(=O)c1ccc(Oc2ccc3c(c2)CCN([C@@H]2CCN(C4CCCC4)C2)C3=O)cc1 [Example 38, 4-({2-[(3R)-1-cyclopentylpyrrolidin-3-yl]-1-oxo-1,2,3,4-tetrahydroisoquinolin-6-yl}oxy)-N-ethylbenzamide] | 10.1 to 25 |
| O=C(c1ccc(Oc2ccc3c(c2)CCN([C@@H]2CCN(C4CCCC4)C2)C3=O)cc1)N1CCCC1 [Example 39, 2-[(3R)-1-cyclopentylpyrrolidin-3-yl]-6-[4-(pyrrolidin-1-ylcarbonyl)phenoxy]-3,4-dihydroisoquinolin-1(2H)-one] | ≤ 10 |
| CNC(=O)c1ccc(-c2ccc3c(c2)CCN([C@@H]2CCN(C4CCCC4)C2)C3=O)cc1 [Example 41, 4-{2-[(3R)-1-cyclopentylpyrrolidin-3-yl]-1-oxo-1,2,3,4-tetrahydroisoquinolin-6-yl}-N-methylbenzamide] | ≤ 10 |
| CCNC(=O)c1ccc(-c2ccc3c(c2)CCN([C@@H]2CCN(C4CCCC4)C2)C3=O)cc1 [Example 42, 4-{2-[(3R)-1-cyclopentylpyrrolidin-3-yl]-1-oxo-1,2,3,4-tetrahydroisoquinolin-6-yl}-N-ethylbenzamide] | ≤ 10 |
